Measured values as given in patent US20230286958A1, “PLASMA KALLIKREIN INHIBITORS” (Merck Sharp & Dohme LLC, priority 2020, published 2023).

Tests used:
[1] = molecular target: human Factor XIa (Homo sapiens (Human), UniProt P03951); test: Factor XIa Assay (fluorogenic substrate GPR-AFC); type: biochemical; conditions: Factor XIa (FXIa)
[2] = molecular target: Human plasma kallikrein (Homo sapiens (Human), UniProt P03952); test: Kallikrein Assay (fluorogenic substrate Acetyl-K-P-R-AFC); type: biochemical; conditions: Plasma Kallikrein (PKal)
Procedure, shortened: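 Ki is derived from IC50 with the Cheng-Prusoff equation, and IC50 from the inflection point of a four-parameter logistic curve. The rate of AFC release is read with 0.5 nM purified enzyme and […] substrate at room temperature or 37 °C.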

Chain of human Factor XIa (P03951 388-625 limits assumed): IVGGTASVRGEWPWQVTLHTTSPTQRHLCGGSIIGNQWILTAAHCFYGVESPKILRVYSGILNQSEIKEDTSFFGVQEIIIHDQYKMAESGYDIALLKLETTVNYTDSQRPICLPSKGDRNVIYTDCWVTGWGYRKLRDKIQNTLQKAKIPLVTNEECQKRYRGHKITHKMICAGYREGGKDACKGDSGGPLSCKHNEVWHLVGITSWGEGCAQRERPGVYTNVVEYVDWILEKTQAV
Chain of human Factor XIa (P03951 19-387 partner limits assumed): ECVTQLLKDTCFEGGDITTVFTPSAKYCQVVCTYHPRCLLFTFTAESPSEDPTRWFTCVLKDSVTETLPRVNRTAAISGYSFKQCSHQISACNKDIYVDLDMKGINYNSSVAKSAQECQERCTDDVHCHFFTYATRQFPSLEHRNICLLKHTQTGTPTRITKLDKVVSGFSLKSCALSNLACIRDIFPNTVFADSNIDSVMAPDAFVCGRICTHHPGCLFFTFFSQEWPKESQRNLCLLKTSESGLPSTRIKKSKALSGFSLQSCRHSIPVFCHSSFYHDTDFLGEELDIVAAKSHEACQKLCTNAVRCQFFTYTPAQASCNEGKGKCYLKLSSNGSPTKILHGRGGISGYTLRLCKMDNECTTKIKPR
Chain of Human plasma kallikrein (P03952 391-638): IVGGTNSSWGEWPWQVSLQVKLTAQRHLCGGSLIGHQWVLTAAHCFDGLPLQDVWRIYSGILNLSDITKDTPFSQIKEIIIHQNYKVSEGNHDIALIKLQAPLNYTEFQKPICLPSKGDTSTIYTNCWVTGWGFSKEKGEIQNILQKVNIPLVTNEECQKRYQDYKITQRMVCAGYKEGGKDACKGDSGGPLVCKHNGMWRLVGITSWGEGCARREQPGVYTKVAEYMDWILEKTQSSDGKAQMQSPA
Chain of Human plasma kallikrein (P03952 20-390 partner): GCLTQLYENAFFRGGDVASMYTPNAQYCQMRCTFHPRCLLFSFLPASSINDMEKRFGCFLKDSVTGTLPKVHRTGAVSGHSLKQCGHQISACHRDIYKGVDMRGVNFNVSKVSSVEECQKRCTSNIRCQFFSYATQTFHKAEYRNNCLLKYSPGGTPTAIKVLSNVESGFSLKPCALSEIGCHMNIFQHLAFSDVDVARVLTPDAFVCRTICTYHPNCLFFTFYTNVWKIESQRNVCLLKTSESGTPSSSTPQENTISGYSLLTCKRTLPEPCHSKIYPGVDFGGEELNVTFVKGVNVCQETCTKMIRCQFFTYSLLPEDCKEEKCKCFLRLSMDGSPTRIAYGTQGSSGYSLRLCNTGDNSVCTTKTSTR

SMILES	IC50 [1]	IC50 [2]
Cc1c(C(C)n2cc(NC(=O)c3cncc(-c4c(OC(F)F)ccc(Cl)c4F)n3)cn2)cnc(N2C[C@H]3C[C@H]3C2=O)c1F (single isomer, unassigned) [Example 133, 6-(3-Chloro-6-(difluoromethoxy)-2-fluorophenyl)-N-(1-((S or R)-1-(5-fluoro-4-methyl-6-((1R,5S)-2-oxo-3-azabicyclo[3.1.0]hexan-3-yl)pyridin-3-yl)ethyl)-1i-pyrazol-4-yl)pyrazine-2-carboxamide]	510 nM	0.6 nM
Cc1c(C(C)n2cc(NC(=O)c3cncc(-c4c(OC(F)F)ccc(Cl)c4F)n3)cn2)cnc(N2C[C@H]3C[C@H]3C2=O)c1F (single isomer, unassigned) [Example 134, 6-(3-Chloro-6-(difluoromethoxy)-2-fluorophenyl)-N-(1-((R or S)-1-(5-fluoro-4-methyl-6-((1R,5S)-2-oxo-3-azabicyclo[3.1.0]hexan-3-yl)pyridin-3-yl)ethyl)-1H-pyrazol-4-yl)pyrazine-2-carboxamide]	5570 nM	13.9 nM
Cc1ncc(-c2c(C#N)ccc(Cl)c2F)nc1C(=O)Nc1cnn(C(C)c2cnc(N3C[C@H]4C[C@H]4C3=O)c(F)c2C)c1 (single isomer, unassigned) [Example 135, 6-(3-Chloro-6-cyano-2-fluorophenyl)-N-(1-((S or R)-1-(5-fluoro-4-methyl-6-((1R,5S)-2-oxo-3-azabicyclo[3.1.0]hexan-3-yl)pyridin-3-yl)ethyl)-1H-pyrazol-4-yl)-3-methylpyrazine-2-carboxamide]	4880 nM	5.4 nM
Cc1ncc(-c2c(C#N)ccc(Cl)c2F)nc1C(=O)Nc1cnn(C(C)c2cnc(N3C[C@H]4C[C@H]4C3=O)c(F)c2C)c1 (single isomer, unassigned) [Example 136, 6-(3-Chloro-6-cyano-2-fluorophenyl)-N-(1-((R or S)-1-(5-fluoro-4-methyl-6-((1R,5S)-2-oxo-3-azabicyclo[3.1.0]hexan-3-yl)pyridin-3-yl)ethyl)-1H-pyrazol-4-yl)-3-methylpyrazine-2-carboxamide]	591 nM	0.2 nM
Cc1ncc(-c2c(C(F)F)ccc(Cl)c2F)nc1C(=O)Nc1cnn(C(C)c2ncc(N3C[C@H]4C[C@H]4C3=O)cc2F)c1 (single isomer, unassigned) [Example 137, 6-(3-Chloro-6-(difluoromethyl)-2-fluorophenyl)-N-(1-((S or R)-1-(3-fluoro-5-((1R,5S)-2-oxo-3-azabicyclo[3.1.0]hexan-3-yl)pyridin-2-yl)ethyl)-1H-pyrazol-4-yl)-3-methylpyrazine-2-carboxamide]	> 10000 nM	7.7 nM
Cc1cc(C(C)n2cc(NC(=O)c3nc(-c4c(C#N)ccc(Cl)c4F)cnc3C)cn2)cnc1N1C[C@H]2C[C@H]2C1=O (single isomer, unassigned) [Example 139, 6-(3-Chloro-6-cyano-2-fluorophenyl)-3-methyl-N-(1-((S or R)-1-(5-methyl-6-((1R,5S)-2-oxo-3-azabicyclo[3.1.0]hexan-3-yl)pyridin-3-yl)ethyl)-1H-pyrazol-4-yl)pyrazine-2-carboxamide]	282 nM	0.9 nM
Cc1cc(C(C)n2cc(NC(=O)c3nc(-c4c(C#N)ccc(Cl)c4F)cnc3C)cn2)cnc1N1C[C@H]2C[C@H]2C1=O (single isomer, unassigned) [Example 140, 6-(3-Chloro-6-cyano-2-fluorophenyl)-3-methyl-N-(1-((R or S)-1-(5-methyl-6-((IR,5S)-2-oxo-3-azabicyclo[3.1.0]hexan-3-yl)pyridin-3-yl)ethyl)-1H-pyrazol-4-yl)pyrazine-2-carboxamide]	972 nM	0.6 nM
CC(c1cnc(N2C[C@H]3C[C@H]3C2=O)c2c1CCC2)n1cc(NC(=O)c2cncc(-c3c(C(F)F)ccc(Cl)c3F)n2)cn1 (single isomer, unassigned) [Example 141, 6-(3-Chloro-6-(difluoromethyl)-2-fluorophenyl)-N-(1-((S or R)-1-(1-((1R,5S)-2-oxo-3-azabicyclo[3.1.0]hexan-3-yl)-6,7-dihydro-5H-cyclopenta[c]pyridin-4-yl)ethyl)-1H-pyrazol-4-yl)pyrazine-2-carboxamide]	906 nM	1.1 nM
CC(c1cnc(N2C[C@H]3C[C@H]3C2=O)c2c1CCC2)n1cc(NC(=O)c2cncc(-c3c(C(F)F)ccc(Cl)c3F)n2)cn1 (single isomer, unassigned) [Example 142, 6-(3-Chloro-6-(difluoromethyl)-2-fluorophenyl)-N-(1-((R or S)-1-(1-((1R,5S)-2-oxo-3-azabicyclo[3.1.0]hexan-3-yl)-6,7-dihydro-5H-cyclopenta[c]pyridin-4-yl)ethyl)-1H-pyrazol-4-yl)pyrazine-2-carboxamide]	373 nM	0.6 nM
CC(c1cnc(N2C[C@H]3C[C@H]3C2=O)c(F)c1)n1cc(NC(=O)c2nc(-c3c(C(F)F)ccc(Cl)c3F)cnc2COC(C)(C)C)cn1 (single isomer, unassigned) [Example 143, 3-(tert-Butoxymethyl)-6-(3-chloro-6-(difluoromethyl)-2-fluorophenyl)-N-(1-((S or R)-1-(5-fluoro-6-((1R,5S)-2-oxo-3-azabicyclo[3.1.0]hexan-3-yl)pyridin-3-yl)ethyl)-1H-pyrazol-4-yl)pyrazine-2-carboxamide]	4310 nM	4.9 nM
CC(c1cnc(N2C[C@H]3C[C@H]3C2=O)c(F)c1)n1cc(NC(=O)c2nc(-c3c(C(F)F)ccc(Cl)c3F)cnc2COC(C)(C)C)cn1 (single isomer, unassigned) [Example 144, 3-(tert-Butoxymethyl)-6-(3-chloro-6-(difluoromethyl)-2-fluorophenyl)-N-(1-((R or S)-1-(5-fluoro-6-((1R,5S)-2-oxo-3-azabicyclo[3.1.0]hexan-3-yl)pyridin-3-yl)ethyl)-1H-pyrazol-4-yl)pyrazine-2-carboxamide]	> 10000 nM	1.6 nM
CC(c1ncc(N2C[C@H]3C[C@H]3C2=O)cc1F)n1cc(NC(=O)c2cncc(-c3c(C(F)F)ccc(Cl)c3F)n2)cn1 (single isomer, unassigned) [Example 146, 6-(3-Chloro-6-(difluoromethyl)-2-fluorophenyl)-N-(1-((R or S)-1-(3-fluoro-5-((1R,5S)-2-oxo-3-azabicyclo[3.1.0]hexan-3-yl)pyridin-2-yl)ethyl)-1H-pyrazol-4-yl)pyrazine-2-carboxamide]	> 10000 nM	9.8 nM

The remaining lines, values ahead:

IC50 [1]	IC50 [2]	SMILES
7300 nM	2.9 nM	Cc1ncc(-c2c(C(F)F)ccc(Cl)c2F)nc1C(=O)Nc1cnn(C(C)c2ncc(N3C[C@H]4C[C@H]4C3=O)cc2Cl)c1 (single isomer, unassigned) [Example 147, N-(1-((R or S)-1-(3-Chloro-5-((1R,5S)-2-oxo-3-azabicyclo[3.1.0]hexan-3-yl)pyridin-2-yl)ethyl)-1H-pyrazol-4-yl)-6-(3-chloro-6-(difluoromethyl)-2-fluorophenyl)-3-methylpyrazine-2-carboxamide]
197 nM	0.3 nM	Cc1c(C(C)n2cc(NC(=O)c3cncc(-c4c(C(F)F)ccc(Cl)c4F)n3)cn2)cnc(N2C[C@H]3C[C@H]3C2=O)c1C (single isomer, unassigned) [Example 152, 6-(3-Chloro-6-(difluoromethyl)-2-fluorophenyl)-N-(1-((R or S)-1-(4,5-dimethyl-6-((1R,5S)-2-oxo-3-azabicyclo[3.1.0]hexan-3-yl)pyridin-3-yl)ethyl)-1H-pyrazol-4-yl)pyrazine-2-carboxamide]
2170 nM	2 nM	Cc1c(C(C)n2cc(NC(=O)c3cncc(-c4c(C(F)F)ccc(Cl)c4F)n3)cn2)cnc(N2C[C@H]3C[C@H]3C2=O)c1C (single isomer, unassigned) [Example 153, 6-(3-Chloro-6-(difluoromethyl)-2-fluorophenyl)-N-(1-((S or R)-1-(4,5-dimethyl-6-((1R,5S)-2-oxo-3-azabicyclo[3.1.0]hexan-3-yl)pyridin-3-yl)ethyl)-1H-pyrazol-4-yl)pyrazine-2-carboxamide]
661 nM	0.3 nM	COc1c(N2C[C@H]3C[C@H]3C2=O)ncc(C(C)n2cc(NC(=O)c3cncc(-c4c(C(F)F)ccc(Cl)c4F)n3)cn2)c1C (single isomer, unassigned) [Example 154, 6-(3-Chloro-6-(difluoromethyl)-2-fluorophenyl)-N-(1-((R or S)-1-(5-methoxy-4-methyl-6-((1R,5S)-2-oxo-3-azabicyclo[3.1.0]hexan-3-yl)pyridin-3-yl)ethyl)-1H-pyrazol-4-yl)pyrazine-2-carboxamide]
8200 nM	7.1 nM	COc1c(N2C[C@H]3C[C@H]3C2=O)ncc(C(C)n2cc(NC(=O)c3cncc(-c4c(C(F)F)ccc(Cl)c4F)n3)cn2)c1C (single isomer, unassigned) [Example 155, 6-(3-Chloro-6-(difluoromethyl)-2-fluorophenyl)-N-(1-((S or R)-1-(5-methoxy-4-methyl-6-((1R,5S)-2-oxo-3-azabicyclo[3.1.0]hexan-3-yl)pyridin-3-yl)ethyl)-1H-pyrazol-4-yl)pyrazine-2-carboxamide]
> 10000 nM	26.7 nM	O=C(Nc1cnn(C(CO)c2cnc(N3CC4CC4C3=O)nc2)c1)c1cncc(-c2c(C(F)F)ccc(Cl)c2F)n1 (single isomer, unassigned) [Example 161, 6-(3-chloro-6-(difluoromethyl)-2-fluorophenyl)-N-(1-((S or R)-2-hydroxy-1-(2-((1S,5R or 1R,5S)-2-oxo-3-azabicyclo[3.1.0]hexan-3-yl)pyrimidin-5-yl)ethyl)-1H-pyrazol-4-yl)pyrazine-2-carboxamide]
3450 nM	8.7 nM	Cc1ncc(-c2c(C(F)F)ccc(Cl)c2F)nc1C(=O)Nc1cnn(C(CO)c2ccc(N3CC4CC4C3=O)nc2)c1 (single isomer, unassigned) [Example 162, 6-(3-chloro-6-(difluoromethyl)-2-fluorophenyl)-N-(1-((S or R)-2-hydroxy-1-(6-((1S,5R or 1R,5S)-2-oxo-3-azabicyclo[3.1.0]hexan-3-yl)pyridin-3-yl)ethyl)-1H-pyrazol-4-yl)-3-methylpyrazine-2-carboxamide]
